Patent publication US4847290A, “Delta 1-thc-7-oic acid and analgesic and anti-inflammatory agents” (priority 1987, dated 1989)
Several values for one entry are separate records, joined by “and”; a condition that tells them apart may be missing. Equal entries are not always repeated. Entries after “also recorded” stand apart in the source; their conditions may differ. Where two headings read alike, the source gives them in different places.

Columns and labels:
Rat Ulcerogenicity Test = type: in vivo, rat (Charles River CD); conditions: for Incidence (number of rats with lesions/total tested) / Mean Score of gastric mucosal lesions: stomach tube, 1 h; for Mean Score of gastric mucosal lesions: scale 0 (normal mucosa) to 3 (erosions longer than 5 mm or confluent hemorrhages)
Protocol: Experimental groups of 5-11 rats (Charles River CD) were fasted for 24 hours before the administration of either aspirin, Δ^1 -THC-7-oic-acid or indomethacin by a rubber stomach tube (Rusch No. 8). The animals were killed 1 hour later by carbon dioxide asphyxiation. At that time, 4 ml of 10% aqueous buffered formaldehyde (formalin) was injected directly into the stomach of each animal. This in situ intraluminal fixation with formalin was especially critical for the assessment of small gastric erosions induced by aspirin since the overlying hemorrhage could easily be removed by rinsing the unfixed stomach. After 5 minutes of in situ fixation, the stomach and proximal duodenum were removed, opened along the greater curvature, pinned on a cork with mucosa upward, and immersed in 10% formaldehyde until further processing (Szabo, S. et al, J. Pharmacol. Meth. 13:59-66, 1985). The gastric lesions were then evaluated by direct visual inspection.
For comparative purposes, a semiquantitative scale of 0-3 was used to assess the extent of gastric mucosal lesions (Scabo et al., 1981, 1983). According to this scale, a score of 0 indicates a normal mucosa; 1 represents the appearance of between 1 and 4 small petechiae; 2 indicates the presence of 5 or more petechiae or hemmorhagic streaks up to 4 mm in length; 3 represents the appearance of erosions longer than 5 mm or confluent hemorrhages.

[1] = Mouse Carrageenan Edema Test; type: in vivo, mouse (Charles River CD-1, female); conditions: 3 h after carrageenan; for Paw Volume (edema volume): ± S.D.
Protocol: The basic experimental procedure was adapted from Sophia et al., J. Pharma. Exper. Ther. 186:646, 1973. Charles Rivier CD-1 female mice (20-25 g) were given a dose of either Δ^1 -THC-7-oic-acid, indomethacin or vehicle (control). All compounds were administered orally in a 20 ul volume of peanut oil. One hour later, 0.05 ml of a 1% solution of calcium carrageenan in saline was injected subcutaneously into the plantar surface of the right hind paw. The volume of the injected foot to the level of the lateral malleolus was measured by water displacement immediately before oral drug administration and again three hours after carrageenan injection. The difference between the two measurements was called edema volume. The effectiveness of each compound was analyzed in the following manner. For Δ^1 -THC-7-oic-acid, the mean paw volumes, before and after the metabolite was administered, were statistically compared by one-way ANOVA (analysis of variance) and Fisher PLSD Scheffe t-tests. For indomethacin, the mean paw volumes, pre- and postdrug, were statistically compared using the student's t-test. The percent inhibition of edema volume was obtained from the ratio of the predrug volume to the postdrug volume (Table II).

[2] = humans; cited from earlier work
[3] = rhesus monkey; cited from earlier work
[4] = system: prostaglandin synthetase system; conditions: variety of models; cited from earlier work
[5] = parameters: species or system mouse (Charles River CD-1); conditions: mouse, in vivo
prostaglandin synthesis = conditions: metabolite added to culture medium prior to THC exposure; cited from earlier work

Structure (SMILES) | gastric lesions / gastrointestinal damage (in words) (Rat Ulcerogenicity Test; 100 mg/kg, half the therapeutic dose, into the stomach) | Incidence (number of rats with lesions/total tested) (Rat Ulcerogenicity Test; 100 mg/kg) | Mean Score of gastric mucosal lesions (Rat Ulcerogenicity Test; 100 mg/kg) | % Inhibition of Edema Volume ([1]; 20 mg/kg oral) [%] | Paw Volume (edema volume) ([1]; 20 mg/kg oral) [µL] | % Inhibition of Edema Volume ([1]; 40 mg/kg oral) [%] | Paw Volume (edema volume) ([1]; 40 mg/kg oral) [µL] | ulcer / gastric lesion formation (in words) (Rat Ulcerogenicity Test; 50 mg/kg, directly into the stomach) | Incidence (number of rats with lesions/total tested) (Rat Ulcerogenicity Test; 50 mg/kg) | Mean Score of gastric mucosal lesions (Rat Ulcerogenicity Test; 50 mg/kg) | behavioral activity and cardiovascular effects [2] | behavioral activity and cardiovascular effects [3] | inhibition of the prostaglandin synthetase system [4] | analgesic (pain-relieving) effect / potency relative to naproxen ([5]; po) | antagonism of the stimulatory effect of THC on prostaglandin synthesis (prostaglandin synthesis) | Incidence (number of rats with lesions/total tested) (Rat Ulcerogenicity Test; 10 mg/kg) | Mean Score of gastric mucosal lesions (Rat Ulcerogenicity Test; 10 mg/kg) | Incidence (number of rats with lesions/total tested) (Rat Ulcerogenicity Test; 20 mg/kg) | Mean Score of gastric mucosal lesions (Rat Ulcerogenicity Test; 20 mg/kg) | Latency (percent change of the mean reaction time compared to predrug values) [5]
CC(=O)Oc1ccccc1C(=O)O [Aspirin] | induced the formation of gastric lesions in each test animal; also recorded: each of the experimental animals experiences gastrointestinal damage | 10/10 | 1.9 |  |  |  |  |  |  |  |  |  |  |  |  |  |  |  |  | 
CCCCCc1cc(O)c2c(c1)OC(C)(C)[C@@H]1CCC(C(=O)O)=CC21 (single isomer, unassigned) [Δ^1 -THC-7-oic-acid] |  |  |  | 53 | 9 ± 12 | 79 | 4 ± 13 | did not induce ulcer formation; also recorded: does not induce the formation of gastric lesions | 0/10 | 0.0 | did not show the behavioral activity or the cardiovascular effects characteristic of the parent substance, THC | did not show the behavioral activity or the cardiovascular effects characteristic of the parent substance, THC | potent inhibitor of the prostaglandin synthetase system | merely equivalent to that of naproxen; also recorded: exhibits analgesic activity with a potency similar to that of naproxen | dramatic lowering of the stimulatory effect of THC on prostaglandin synthesis |  |  |  |  | 
COc1ccc2c(c1)c(CC(=O)O)c(C)n2C(=O)c1ccc(Cl)cc1 [Indomethacin, reference compound] |  |  |  | 100 | -13 ± 17 |  |  |  |  |  |  |  |  |  |  | 2/5 | 0.6 | 6/11 | 0.77 | 52.7 and 51.1
